# From patent publication US7601333B2, “Use of a tetrapeptide AcSDKP (SEQ ID No. 1) analog resistant to the angiotensin I converting enzyme for measuring glomerular filtration rate in a human or an animal and kit containing same” (Assistance Publique-Hopitaux de Paris, priority 2003, dated 2009)
# Values joined by “and” are separate entries in the source; they are usually repeats but may differ in a detail not shown here. Equal entries are not always repeated. Where two headings read alike, the source gives them in different places. Residues, ends and D or L forms follow the SMILES beside them.
# Legend:
# rat lung ACE = biological target: T1, rat lung ACE (Rattus norvegicus, UniProt P47820); test: In vitro degradation in the presence of rat lung ACE; type: in vitro ADME; details: for percentage of peptide assayed relative to the control: peptide 100 nM, ground rat lung material 0.1 mg/ml, pH 7.5
# T1 construct: incubated with ground rat lung material (at 0.1 mg/ml); from tissue; host or cells: rat lung (ground material)
# T1 sequence (P47820 36-1313): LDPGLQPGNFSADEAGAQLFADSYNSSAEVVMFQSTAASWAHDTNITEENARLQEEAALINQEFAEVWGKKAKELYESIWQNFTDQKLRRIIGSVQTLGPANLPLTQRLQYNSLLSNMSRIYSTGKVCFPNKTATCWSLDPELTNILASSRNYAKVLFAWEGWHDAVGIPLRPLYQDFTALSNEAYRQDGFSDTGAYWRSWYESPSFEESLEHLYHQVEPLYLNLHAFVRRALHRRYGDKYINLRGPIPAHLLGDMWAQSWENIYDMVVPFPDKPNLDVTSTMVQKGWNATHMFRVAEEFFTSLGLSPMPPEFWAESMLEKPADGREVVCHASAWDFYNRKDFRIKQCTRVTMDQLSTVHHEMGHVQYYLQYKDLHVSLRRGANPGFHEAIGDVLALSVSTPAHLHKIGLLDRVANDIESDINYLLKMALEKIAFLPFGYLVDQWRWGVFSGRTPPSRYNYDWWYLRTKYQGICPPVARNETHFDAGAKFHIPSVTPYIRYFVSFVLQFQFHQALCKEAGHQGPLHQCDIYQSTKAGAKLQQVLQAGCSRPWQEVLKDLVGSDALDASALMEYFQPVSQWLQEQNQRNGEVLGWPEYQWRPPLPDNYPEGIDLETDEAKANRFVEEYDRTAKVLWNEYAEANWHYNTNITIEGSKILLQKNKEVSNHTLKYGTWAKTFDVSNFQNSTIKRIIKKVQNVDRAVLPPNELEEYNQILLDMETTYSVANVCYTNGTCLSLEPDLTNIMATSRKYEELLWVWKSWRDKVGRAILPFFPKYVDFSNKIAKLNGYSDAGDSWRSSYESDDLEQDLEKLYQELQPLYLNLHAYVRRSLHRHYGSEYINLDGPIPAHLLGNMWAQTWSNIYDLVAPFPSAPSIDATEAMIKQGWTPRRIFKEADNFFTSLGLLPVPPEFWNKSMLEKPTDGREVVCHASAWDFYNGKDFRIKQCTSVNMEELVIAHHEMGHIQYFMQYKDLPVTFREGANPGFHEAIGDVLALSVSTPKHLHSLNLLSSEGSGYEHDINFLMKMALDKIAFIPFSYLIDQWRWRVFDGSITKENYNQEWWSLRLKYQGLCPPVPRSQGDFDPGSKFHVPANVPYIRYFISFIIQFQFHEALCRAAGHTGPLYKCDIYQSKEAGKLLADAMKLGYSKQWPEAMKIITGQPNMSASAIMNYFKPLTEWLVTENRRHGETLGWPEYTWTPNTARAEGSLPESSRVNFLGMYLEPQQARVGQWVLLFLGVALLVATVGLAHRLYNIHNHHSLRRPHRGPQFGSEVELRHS
# Procedure: (§1) The peptides (100 nM) were incubated with ground rat lung material (at 0.1 mg/ml) or human converting enzyme (5 mU final concentration) in the presence or absence of captopril (10 μM final concentration) in 0.1 M Tris/HCl buffer+0.3 mM NaCl, pH=7.5. A control comprising only the peptides in the presence of 0.1 M Tris/HCl buffer+0.3 mM NaCl, pH=7.5, was carried out.
# (§2) A methanol extraction was carried out in order to stop the reaction. At each time, the concentration of the nondegraded peptide was measured by enzyme immunoassay.
# (§3) The results were expressed as percentage of peptide assayed relative to the control for each sample time.
# ACE (rat lung) = tested on: T2, ACE (rat lung); test: as above; type: in vitro ADME; details: ground rat lung material (rat lung ACE), peptide 100 nM, ground rat lung material 0.1 mg/ml, pH 7.5, read-out: percentage of peptide assayed relative to the control; for remaining at 2 h, 100 nM: T120 min
# T2 construct: incubated with ground rat lung material (at 0.1 mg/ml); from tissue; host or cells: rat lung (ground material)
# Procedure: as §1, §2, §3
# [1] = Plasma and urine pharmacokinetics after I.V. bolus in rats; details: for % excreted: urine; for Renal clearance: summarizing table, i.v. bolus
# [2] = Group 3, i.v. bolus, without captopril, 24-48 h, single rats
# [3] = Group 3, i.v. bolus, without captopril, mean
# [4] = Group 3, i.v. bolus, without captopril, single rats
# [5] = Group 4, i.v. bolus, with captopril, 4-24 h, single rats
# [6] = Group 4, i.v. bolus, with captopril, 48-72 h, single rats
# [7] = Group 4, i.v. bolus, with captopril, mean
# [8] = Group 4, i.v. bolus, with captopril, single rats
smiles,measurement,setting,value
"CC(=O)N[C@@H](CO)C(=O)N[C@@H](CC(=O)O)C(=O)N[C@@H](CCCCN)C(=O)N1CCC[C@H]1C(N)=O [AcSDKP-NH2, N-acetyl-Ser-Asp-Lys-Pro-NH2] (Ac-SDKP-NH2)",degradation by rat ACE,rat lung ACE; in vitro,does not appear to be degraded
same,concentrations found,"rat lung ACE; in vitro, relative to control",100±25%
same,percentage of peptide assayed relative to the control,"rat lung ACE; T30 min, + captopril 10 μM",125%
same,percentage of peptide assayed relative to the control,"rat lung ACE; T60 min, + captopril 10 μM",65%
same,percentage of peptide assayed relative to the control,"rat lung ACE; T240 min, + captopril 10 μM",136%
same,percentage of peptide assayed relative to the control,"rat lung ACE; T240 min, without captopril",126%
same,"remaining at 2 h, 100 nM","ACE (rat lung); with captopril 10 μM, + captopril 10 μM",109%
same,"remaining at 0.5 h, 100 nM","ACE (rat lung); T30 min, without captopril",100%
same,"remaining at 1 h, 100 nM","ACE (rat lung); T60 min, without captopril",65%
same,"remaining at 2 h, 100 nM",ACE (rat lung); without captopril,95%
same,Q in urine,"[1]; Group 3, i.v. bolus, without captopril, 0-2 h, single rats",175685.1 ng and 0.0 ng (5×)
same,Q in urine,"[1]; Group 3, i.v. bolus, without captopril, 2-4 h, single rats",0.0 ng (3×) and 180325.8 ng and 141210.2 ng and 290581.1 ng
same,Q in urine,"[1]; Group 3, i.v. bolus, without captopril, 4-7 h, single rats",84030.9 ng and 23548.7 ng and 0.0 ng (4×)
same,Q in urine,"[1]; Group 3, i.v. bolus, without captopril, 7-24 h, single rats",16014.8 ng and 8570.5 ng and 211497.2 ng and 41898.9 ng and 29223.7 ng and 159391.7 ng
same,Concentration in urine,[1]; [2],ILQ
same,Q in urine,[1]; [2],513.0 ng and 1304.8 ng and 47218.0 ng and 603.6 ng and ILQ and 3161.4 ng
same,Concentration in plasma,"[1]; Group 3, i.v. bolus, without captopril, 5 min, single rats",2581 ng/mL and 3139 ng/mL and 2865 ng/mL and 2491 ng/mL and 3250 ng/mL and 2663 ng/mL
same,Concentration in plasma,"[1]; Group 3, i.v. bolus, without captopril, 10 min, single rats",1611 ng/mL and 2288 ng/mL and 2425 ng/mL and 2152 ng/mL and 2918 ng/mL and 2595 ng/mL
same,Concentration in plasma,"[1]; Group 3, i.v. bolus, without captopril, 15 min, single rats",1655 ng/mL and 985 ng/mL and 2204 ng/mL and 1796 ng/mL and 1930 ng/mL and 1750 ng/mL
same,Concentration in plasma,"[1]; Group 3, i.v. bolus, without captopril, 30 min, single rats",748 ng/mL and 880 ng/mL and 1317 ng/mL and 1329 ng/mL and 930 ng/mL and 867 ng/mL
same,Concentration in plasma,"[1]; Group 3, i.v. bolus, without captopril, 60 min, single rats",233 ng/mL and 443 ng/mL and 598 ng/mL and 545 ng/mL and 416 ng/mL and 463 ng/mL
same,Concentration in plasma,"[1]; Group 3, i.v. bolus, without captopril, 120 min, single rats",47 ng/mL and 45 ng/mL and 163 ng/mL and 118 ng/mL and 48 ng/mL and 69 ng/mL
same,Concentration in plasma,"[1]; Group 3, i.v. bolus, without captopril, 240 min, single rats",ILQ (2×) and 3 ng/ml and 5 ng/ml and 2 ng/ml and 4 ng/ml
same,Concentration in plasma,"[1]; Group 3, i.v. bolus, without captopril, 300 min, single rats",ILQ
same,CLR,[1]; [3],7.59 mL/min/kg
same,Ctotal dose/AUC,[1]; [3],8.08 mL/min/kg
same,AUC0-INF,[1]; [4],87407 ng·min/mL and 125025 ng·min/mL and 111894 ng·min/mL and 101003 ng·min/mL and 96190 ng·min/mL
same,CLR,[1]; [4],11.8 mL/min/kg and 7.7 mL/min/kg and 6.4 mL/min/kg and 4.9 mL/min/kg and 9.8 mL/min/kg and 5.0 mL/min/kg
same,Ctotal dose/AUC,[1]; [4],11.3 mL/min/kg and 9 mL/min/kg and 6.2 mL/min/kg and 6.5 mL/min/kg and 8.1 mL/min/kg and 7.2 mL/min/kg
same,Q in urine total,[1]; [4],276243.9 ng and 213749.7 ng and 258715.2 ng and 183712.7 ng and 319804.8 ng and 162553.1 ng
same,Vd,[1]; [4],0.27 L/kg and 0.22 L/kg and 0.253 L/kg and 0.256 L/kg and 0.261 L/kg
same,t½,[1]; [4],20.7 min (2×) and 24.5 min and 26.8 min and 21.8 min and 25.1 min
same,% excreted,[1]; [3],92.67%
same,% excreted,[1]; [4],120.7%
same,Concentration in urine,[1]; [5],11032 ng/mL
same,Q in urine,[1]; [5],208504.2 ng and 144361.5 ng and 286064.8 ng and 274157.3 ng and 353834.5 ng
same,Q in urine,"[1]; Group 4, i.v. bolus, with captopril, 24-48 h, single rats",10737.7 ng and 2183.9 ng and 16360.4 ng and 10087.6 ng and 6728.5 ng
same,Concentration in urine,[1]; [6],ILQ and 11 ng/ml
same,Q in urine,[1]; [6],758.4 ng and ILQ and 619.3 ng and 4008.3 ng and 0.0 ng
same,Concentration in plasma,"[1]; Group 4, i.v. bolus, with captopril, 5 min, single rats",3623 ng/mL and 3115 ng/mL and 4099 ng/mL and 2863 ng/mL and 3280 ng/mL
same,Concentration in plasma,"[1]; Group 4, i.v. bolus, with captopril, 10 min, single rats",1750 ng/mL and 3571 ng/mL and 3075 ng/mL and 2682 ng/mL and 2346 ng/mL
same,Concentration in plasma,"[1]; Group 4, i.v. bolus, with captopril, 15 min, mean",1874 ng/mL
same,Concentration in plasma,"[1]; Group 4, i.v. bolus, with captopril, 15 min, single rats",1432 ng/mL and 1978 ng/mL and 2363 ng/mL and 1635 ng/mL and 1960 ng/mL
same,Concentration in plasma,"[1]; Group 4, i.v. bolus, with captopril, 30 min, mean",1213 ng/mL
same,Concentration in plasma,"[1]; Group 4, i.v. bolus, with captopril, 30 min, single rats",1128 ng/mL and 891 ng/mL and 1173 ng/mL and 889 ng/mL and 1986 ng/mL
same,Concentration in plasma,"[1]; Group 4, i.v. bolus, with captopril, 60 min, mean",453 ng/mL
same,Concentration in plasma,"[1]; Group 4, i.v. bolus, with captopril, 60 min, single rats",312 ng/mL and 338 ng/mL and 346 ng/mL and 357 ng/mL and 910 ng/mL
same,Concentration in plasma,"[1]; Group 4, i.v. bolus, with captopril, 120 min, mean",74 ng/mL
same,Concentration in plasma,"[1]; Group 4, i.v. bolus, with captopril, 120 min, single rats",31 ng/mL and 63 ng/mL and 64 ng/mL and 73 ng/mL and 140 ng/mL
same,Concentration in plasma,"[1]; Group 4, i.v. bolus, with captopril, 180 min, mean",15 ng/mL
same,Concentration in plasma,"[1]; Group 4, i.v. bolus, with captopril, 180 min, single rats",7 ng/mL and 11 ng/mL and 18 ng/mL and 16 ng/mL and 23 ng/mL
same,Concentration in plasma,"[1]; Group 4, i.v. bolus, with captopril, 240 min, single rats",2 ng/ml (2×) and 3 ng/ml (3×)
same,Concentration in plasma,"[1]; Group 4, i.v. bolus, with captopril, 300 min, mean",0 ng/mL
same,Concentration in plasma,"[1]; Group 4, i.v. bolus, with captopril, 300 min, single rats",ILQ (4×) and 0 ng/ml
same,AUC0-INF,[1]; [7],110097 ng·min/mL
same,CLR,[1]; [7],8.03 mL/min/kg
same,Ctotal dose/AUC,[1]; [7],8.06 mL/min/kg
same,Vd,[1]; [7],0.269 L/kg
same,AUC0-INF,[1]; [8],100543 ng·min/mL and 114983 ng·min/mL and 92278 ng·min/mL and 153339 ng·min/mL
same,CLR,[1]; [8],8.2 mL/min/kg and 4.7 mL/min/kg and 9.1 mL/min/kg and 10.6 mL/min/kg and 7.6 mL/min/kg
same,Ctotal dose/AUC,[1]; [8],9.0 mL/min/kg and 6.9 mL/min/kg and 7.8 mL/min/kg and 9.4 mL/min/kg and 7.2 mL/min/kg
same,Q in urine total,[1]; [8],220000 ng and 146545.0 ng and 303045 ng and 288253 ng and 360563 ng
same,Vd,[1]; [8],0.23 L/kg and 0.26 L/kg and 0.327 L/kg and 0.242 L/kg
same,t½,[1]; [8],21.9 min and 23.0 min and 24.1 min
same,% excreted,[1]; [7],98.76%
same,"GFR measured after administration, difference between the groups of rats",[1]; rats,does not differ significantly
same,degradation in vivo by ACE or other enzyme systems,[1]; rats,not degraded in vivo
same,excretion in the urine,[1]; rats,completely excreted in the urine without being reabsorbed or secreted
same,mean AUC of group without captopril less than group with captopril,"[1]; rats, mean injected dose 11% higher with captopril",approximately 10%
same,Renal clearance,"[1]; rats, with captopril",8.0 mL/min/kg
same,Renal clearance,"[1]; rats, without captopril",7.6 mL/min/kg
